Experimental data from patent US6337327B1, “Pharmaceutical compositions comprising an aldose reductase inhibitor and an ace inhibitor” (Zeneca Limited, priority 1997, dated 2002).

Tested on: rats rendered diabetic by streptozotocin (sciatic nerve branch to tibialis anterior muscle)
Experiment: Motor nerve conduction velocity in streptozotocin-diabetic rats
Format: in vivo, Male Sprague-Dawley rats
Conditions: lisinopril 0.3 mg/kg/day; for Nerve conduction velocity (mean±SEM): diabetic rats, 6 weeks untreated diabetes then 2 weeks treatment in the drinking water, ZD5522 0.25 mg/kg/day, or both, nondiabetic control 64.4±0.5, untreated diabetic 50.9±0.5; for increase in conduction velocity: single-agent treatment for 2 weeks vs untreated diabetic rats, ZD5522 0.25 mg/kg/day
Method: Male Sprague-Dawley rats, 19 weeks old at the start of the study, were divided into non-diabetic animals (normal control group) and animals rendered diabetic by intraperitoneal administration of streptozotocin, (40-45 mg/kg, freshly dissolved in sterile saline). Diabetes was verified 24 hours later by estimating hyperglycemia and glucosuria (Visidex II and Diastix; Ames, Slough, UK). Diabetic rats were tested weekly and weighed daily. […] Samples were taken from the tail vein or carotid artery after final experiments for plasma glucose determination (GOD-Perid method; Boehringer Mannheim, Mannheim, Germany). After 6 weeks of untreated diabetes, groups of rats were treated for a further 2 weeks with lisinopril (0.3 mg/kg/day) or the aldose reductase inhibitor, ZD5522 (0.25 mg/kg/day) or a combination of the two drugs, dissolved in the drinking water.
At the end of the treatment period, rats were anesthetized with thiobutabarbitone by intraperitoneal injection (50-100 mg/kg). The trachea was cannulated for artificial ventilation and a cartoid cannula was used to monitor mean systemic blood pressure. Motor nerve conduction velocity was measured (as previously described by Cameron et al, Diabetologia, 1993, Vol. 36, pages 299-304) between sciatic notch and knee in the nerve branch to tibialis anterior muscle, which is representative of the whole sciatic nerve in terms of susceptibility to diabetes and treatment effects.

Row | Compound | Nerve conduction velocity (mean±SEM) [m/s] | increase in conduction velocity [%]
1 | Cc1ccccc1CC(=O)Nc1cc(C)c(S(=O)(=O)C[N+](=O)[O-])c(C)c1 [ZD5522, 3′,5′-dimethyl-4′-nitromethylsulfonyl-2-(2-tolyl)acetanilide] | 53.7±0.3 | ~20
2 | NCCCC[C@H](N[C@@H](CCc1ccccc1)C(=O)O)C(=O)N1CCC[C@H]1C(=O)O [lisinopril] | 53.9±0.6 | ~20
